Laboratory results published in ChEMBL document CHEMBL3588788, “Structure-activity relationship of hybrids of Cinchona alkaloids and bile acids with in vitro antiplasmodial and antitrypanosomal activities” (Eur J Med Chem, 2015).

Key:
[1] = system: Trypanosoma brucei brucei; assay: Antitrypanosomal activity against Trypanosoma brucei brucei Lister 427 bloodstream forms assessed as inhibition of parasite growth at 20 ug/ml by microtiter plate based assay; assay type: functional
[2] = system: Plasmodium falciparum; assay: Antiplasmodial activity against Plasmodium falciparum 3D7 assessed as inhibition of parasite viability at 100 ug/ml by parasite lactate dehydrogenase assay; assay type: functional
[3] = system: Plasmodium falciparum; assay: Antiplasmodial activity against Plasmodium falciparum 3D7 assessed as reduction in parasite viability by parasite lactate dehydrogenase assay; assay type: functional, organism-based
[4] = Cytotoxicity against human WI38 cells assessed as inhibition of cell growth at 20 ug/ml by MTT assay; assay type: cell-based, WI-38
[5] = system: Trypanosoma brucei brucei; assay: Antitrypanosomal activity against Trypanosoma brucei brucei Lister 427 bloodstream forms assessed as inhibition of parasite growth at 100 ug/ml by microtiter plate based assay; assay type: functional
[6] = system: Plasmodium falciparum; assay: Antiplasmodial activity against Plasmodium falciparum 3D7 assessed as inhibition of parasite viability at 20 ug/ml by parasite lactate dehydrogenase assay; assay type: functional
[7] = Cytotoxicity against human WI38 cells assessed as inhibition of cell growth at 100 ug/ml by MTT assay; assay type: cell-based, WI-38
[8] = Cytotoxicity against human WI38 cells by MTT assay; assay type: cell-based, WI-38
[9] = Selectivity index, ratio of IC50 against human WI38 cells to IC50 for Plasmodium falciparum 3D7; assay type: toxicity, cell-based, WI-38; details: read-out: Ratio IC50
[10] = system: Trypanosoma brucei brucei; assay: Antitrypanosomal activity against Trypanosoma brucei brucei Lister 427 bloodstream forms by microtiter plate based assay; assay type: functional, organism-based
[11] = in vitro; details: human, WI38 cells
Description: Selectivity index, ratio of IC50 against human WI38 cells to IC50 for Trypanosoma brucei brucei Lister 427 bloodstream forms

[12] = Homo sapiens, WI-38, read-out: IC50

## CC(=O)O[C@@H]1CC[C@@]2(C)[C@H](CC[C@@H]3[C@@H]2CC[C@]2(C)[C@@H]([C@H](C)CCC(=O)O)CC[C@@H]32)C1
[1]
  inhibition at 20 µg/mL: 15%
[2]
  inhibition at 100 µg/mL: 100%
[3]
  IC50: 59.5 µM
[4]
  inhibition at 20 ug/ml: 27%
[5]
  inhibition at 100 µg/mL: 100%
[6]
  inhibition at 20 µg/mL: 70%
[7]
  inhibition at 100 ug/ml: 98%

## CC(=O)O[C@@H]1CC[C@@]2(C)[C@H](CC[C@@H]3[C@@H]2C[C@H](OC(C)=O)[C@]2(C)[C@@H]([C@H](C)CCC(=O)O)CC[C@@H]32)C1
[1]
  inhibition at 20 µg/mL: 36%
[2]
  inhibition at 100 µg/mL: 100%
[3]
  IC50: 30.5 µM
[4]
  inhibition at 20 ug/ml: 10%
[5]
  inhibition at 100 µg/mL: 100%
[6]
  inhibition at 20 µg/mL: 82%
[7]
  inhibition at 100 ug/ml: 98%

## CC(=O)O[C@@H]1CC[C@@]2(C)[C@@H](C1)C[C@@H](OC(C)=O)[C@@H]1[C@@H]2C[C@H](OC(C)=O)[C@]2(C)[C@@H]([C@H](C)CCC(=O)O)CC[C@@H]12
[1]
  inhibition at 20 µg/mL: 15%
[2]
  inhibition at 100 µg/mL: 100%
[3]
  IC50: 22.5 µM
[4]
  inhibition at 20 ug/ml: 12%
[5]
  inhibition at 100 µg/mL: 100%
[6]
  inhibition at 20 µg/mL: 68%
[7]
  inhibition at 100 ug/ml: 29%

## C[C@@H]1CC[C@H]2[C@@H](C)C(=O)O[C@@H]3O[C@@]4(C)CC[C@@H]1[C@]32OO4 [ARTEMISININ]
[3]
  IC50: 0.0362 µM
[8]; wi-38
  IC50: Not Active

## CC[C@@]1(O)C(=O)OCc2c1cc1n(c2=O)Cc2cc3ccccc3nc2-1 [CAMPTOTHECIN]
[8]; [12]
  IC50: 0.23 µM

## C[C@H](CCC(=O)O)[C@H]1CC[C@H]2[C@@H]3[C@H](O)C[C@@H]4C[C@H](O)CC[C@]4(C)[C@H]3CC[C@]12C [CHENODIOL]
[1]
  inhibition at 20 µg/mL: 11%
[2]
  inhibition at 100 µg/mL: 98%
[3]
  IC50: 18.9 µM
[4]
  inhibition at 20 ug/ml: 27%
[5]
  inhibition at 100 µg/mL: 100%
[6]
  inhibition at 20 µg/mL: 77%
[7]
  inhibition at 100 ug/ml: 94%

## C[C@H](CCC(=O)O)[C@H]1CC[C@H]2[C@@H]3[C@H](O)C[C@@H]4C[C@H](O)CC[C@]4(C)[C@H]3C[C@H](O)[C@]12C [CHOLIC ACID]
[1]
  inhibition at 20 µg/mL: 20%
[2]
  inhibition at 100 µg/mL: 83%
[3]
  IC50: 133 µM
[4]
  inhibition at 20 ug/ml: 6%
[5]
  inhibition at 100 µg/mL: 24%
[6]
  inhibition at 20 µg/mL: 56%

## C=C[C@H]1CN2CC[C@H]1C[C@H]2[C@H](O)c1ccnc2ccccc12 [CINCHONIDINE]
[3]
  IC50: 0.963 µM
[8]; [12]
  IC50: > 68 µM
[9]
  selectivity ratio: > 71

## C=C[C@H]1CN2CC[C@H]1C[C@@H]2[C@@H](O)c1ccnc2ccccc12 [CINCHONINE]
[10]
  IC50: > 68 µM
[3]
  IC50: 0.292 µM
[8]; [12]
  IC50: > 68 µM
[9]
  selectivity ratio: > 222

## C[C@H](CCC(=O)O)[C@H]1CC[C@H]2[C@@H]3CC[C@@H]4C[C@H](O)CC[C@]4(C)[C@H]3C[C@H](O)[C@]12C [DEOXYCHOLIC ACID]
[1]
  inhibition at 20 µg/mL: 2%
[2]
  inhibition at 100 µg/mL: 100%
[3]
  IC50: 93.6 µM
[4]
  inhibition at 20 ug/ml: 9%
[5]
  inhibition at 100 µg/mL: 100%
[6]
  inhibition at 20 µg/mL: 59%
[7]
  inhibition at 100 ug/ml: 50%

## C[C@H](CCC(=O)O)[C@H]1CC[C@H]2[C@@H]3[C@H](O)[C@H](O)[C@@H]4C[C@H](O)CC[C@]4(C)[C@H]3CC[C@]12C [HYOCHOLIC ACID]
[1]
  inhibition at 20 µg/mL: 7%
[2]
  inhibition at 100 µg/mL: 92%
[3]
  IC50: 109 µM
[4]
  inhibition at 20 ug/ml: 18%
[5]
  inhibition at 100 µg/mL: 64%
[6]
  inhibition at 20 µg/mL: 54%

## C=C[C@H]1CN2CC[C@H]1C[C@@H]2[C@@H](O)c1ccnc2ccc(OC)cc12 [QUINIDINE]
[3]
  IC50: 0.194 µM
[8]; [12]
  IC50: 34.8 µM

## C=C[C@H]1CN2CC[C@H]1C[C@H]2[C@H](O)c1ccnc2ccc(OC)cc12 [QUININE]
[11]
  selectivity ratio: 1
[3]
  IC50: 0.633 µM
[8]; [12]
  IC50: 20.2 µM
